Data as given in PubChem BioAssay AID2060609 (Molecular Pharmacology Branch, DTP, NCI, 2025).
Blank lines part the entries; values can stand above or below the molecule they belong to.

Test system: 855422-203-R-J1-PDC complex spheroids, viability
Experiment: Anticancer human tumor 855422-203-R-J1-PDC patient-derived bladder carcinoma cell line growth inhibition [CLK]
Conditions: for IC50: curve of first compound; for viability, T/C: stronger effect = lower value
How it was run: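 Patient-derived tumor cells grown as complex spheroids with HUVEC endothelial cells and mesenchymal stem cells, treated with drug combinations. Concentrations descend in half-log steps from near clinical Cmax, or from 10 microM if Cmax unknown.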

[1] = second compound 0.0316 µM, first compound 0.0316 µM
[2] = second compound 0.0316 µM, first compound 0.1 µM
[3] = second compound 0.0316 µM, first compound 0.316 µM
[4] = second compound 0.0316 µM, first compound 1 µM
[5] = second compound 0.1 µM, first compound 0.0316 µM
[6] = second compound 0.1 µM, first compound 0.1 µM
[7] = second compound 0.1 µM, first compound 0.316 µM
[8] = second compound 0.1 µM, first compound 1 µM
[9] = second compound 0.316 µM, first compound 0.0316 µM
[10] = second compound 0.316 µM, first compound 0.1 µM
[11] = second compound 0.316 µM, first compound 0.316 µM
[12] = second compound 0.316 µM, first compound 1 µM
[13] = second compound 1 µM, first compound 0.0316 µM
[14] = second compound 1 µM, first compound 0.1 µM
[15] = second compound 1 µM, first compound 0.316 µM
[16] = second compound 1 µM, first compound 1 µM
[17] = second compound 3.16 µM, first compound 0.0316 µM
[18] = second compound 3.16 µM, first compound 0.1 µM
[19] = second compound 3.16 µM, first compound 0.316 µM
[20] = second compound 3.16 µM, first compound 1 µM
[21] = second compound 10 µM, first compound 0.0316 µM
[22] = second compound 10 µM, first compound 0.1 µM
[23] = second compound 10 µM, first compound 0.316 µM
[24] = second compound 10 µM, first compound 1 µM
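Note: spheroids exposed to drugs for seven days before readout.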
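Throughout, for viability, T/C: 100% = DMSO vehicle control wells.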

IC50 (second compound 0.0316 µM): 0.161 µM
IC50 (second compound 0.1 µM): 0.181 µM
IC50 (second compound 0.316 µM): < 0.0316 µM
IC50 (second compound 1 µM): < 0.0316 µM
IC50 (second compound 3.16 µM): < 0.0316 µM
IC50 (second compound 10 µM): < 0.0316 µM
SMILES: CC(Nc1ccc2c(c1)OCCn1cc(N3C(=O)OCC3C(F)F)nc1-2)C(N)=O (centres undefined) + CNC(=O)c1ccc(Nc2nc(OC3CCCC3)c3c(-c4ccc5nc(C)oc5c4)c[nH]c3n2)c(OC)c1
viability, T/C [1]: 80.5%
viability, T/C [2]: 59.6%
viability, T/C [3]: 36.1%
viability, T/C [4]: 26.3%
viability, T/C (second compound 0.0316 µM, first compound 3.16 µM): 19.7%
viability, T/C (second compound 0.0316 µM, first compound 10 µM): 11.1%
viability, T/C [5]: 61.9%
viability, T/C [6]: 58.6%
viability, T/C [7]: 42.6%
viability, T/C [8]: 27.5%
viability, T/C (second compound 0.1 µM, first compound 3.16 µM): 19.7%
viability, T/C (second compound 0.1 µM, first compound 10 µM): 12%
viability, T/C [9]: 15.8%
viability, T/C [10]: 15.3%
viability, T/C [11]: 13.8%
viability, T/C [12]: 13.4%
viability, T/C (second compound 0.316 µM, first compound 3.16 µM): 9.9%
viability, T/C (second compound 0.316 µM, first compound 10 µM): 6.79%
viability, T/C [13]: 16.9%
viability, T/C [14]: 16.6%
viability, T/C [15]: 11.4%
viability, T/C [16]: 9.1%
viability, T/C (second compound 1 µM, first compound 3.16 µM): 8.21%
viability, T/C (second compound 1 µM, first compound 10 µM): 4.44%
viability, T/C [17]: 21.2%
viability, T/C [18]: 15.8%
viability, T/C [19]: 9.09%
viability, T/C [20]: 9.68%
viability, T/C (second compound 3.16 µM, first compound 3.16 µM): 8.52%
viability, T/C (second compound 3.16 µM, first compound 10 µM): 5.74%
viability, T/C [21]: 15.8%
viability, T/C [22]: 12.1%
viability, T/C [23]: 10.3%
viability, T/C [24]: 10.3%
viability, T/C (second compound 10 µM, first compound 3.16 µM): 7.09%
viability, T/C (second compound 10 µM, first compound 10 µM): 3.99%

IC50 (second compound 0.0316 µM): 0.0142 µM
IC50 (second compound 0.1 µM): 0.0062 µM
IC50 (second compound 0.316 µM): < 0.00316 µM
IC50 (second compound 1 µM): < 0.00316 µM
IC50 (second compound 3.16 µM): < 0.00316 µM
IC50 (second compound 10 µM): < 0.00316 µM
SMILES: COc1c(OCCCN2CCOCC2)ccc2c3n(c(=NC(=O)c4cnc(N)nc4)nc12)CCN3 + CNC(=O)c1ccc(Nc2nc(OC3CCCC3)c3c(-c4ccc5nc(C)oc5c4)c[nH]c3n2)c(OC)c1
viability, T/C (second compound 0.0316 µM, first compound 0.00316 µM): 84.2%
viability, T/C (second compound 0.0316 µM, first compound 0.01 µM): 58.8%
viability, T/C [1]: 29.8%
viability, T/C [2]: 10.1%
viability, T/C [3]: 4.15%
viability, T/C [4]: 1.68%
viability, T/C (second compound 0.1 µM, first compound 0.00316 µM): 52%
viability, T/C (second compound 0.1 µM, first compound 0.01 µM): 49.5%
viability, T/C [5]: 25.3%
viability, T/C [6]: 9.48%
viability, T/C [7]: 3.91%
viability, T/C [8]: 2.07%
viability, T/C (second compound 0.316 µM, first compound 0.00316 µM): 17.3%
viability, T/C (second compound 0.316 µM, first compound 0.01 µM): 18.5%
viability, T/C [9]: 8.61%
viability, T/C [10]: 7.71%
viability, T/C [11]: 3.19%
viability, T/C [12]: 1.46%
viability, T/C (second compound 1 µM, first compound 0.00316 µM): 19.4%
viability, T/C (second compound 1 µM, first compound 0.01 µM): 16.5%
viability, T/C [13]: 7.5%
viability, T/C [14]: 3.51%
viability, T/C [15]: 7.67%
viability, T/C [16]: 1.54%
viability, T/C (second compound 3.16 µM, first compound 0.00316 µM): 18.8%
viability, T/C (second compound 3.16 µM, first compound 0.01 µM): 14.2%
viability, T/C [17]: 10.1%
viability, T/C [18]: 7.42%
viability, T/C [19]: 2.07%
viability, T/C [20]: 1.38%
viability, T/C (second compound 10 µM, first compound 0.00316 µM): 16.3%
viability, T/C (second compound 10 µM, first compound 0.01 µM): 11.2%
viability, T/C [21]: 6.12%
viability, T/C [22]: 4.26%
viability, T/C [23]: 3.27%
viability, T/C [24]: 1.62%
